According to PubChem BioAssay (NCI):
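Briefly, cells in 96-well plates were exposed to five compound concentrations for 48 h, and endpoints were estimated by linear interpolation. At the GI50, growth is halved. TGI: concentration producing complete growth inhibition.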

Experiments:
Assay in all cases: NCI-60 cell line screen, 48 h
786-0 renal = test system: 786-0 renal
A498 renal = test system: A498 renal
A549 NSCLC = test system: A549 NSCLC
ACHN renal = test system: ACHN renal
BT-549 breast = test system: BT-549 breast
CAKI-1 renal = test system: CAKI-1 renal
CCRF-CEM leukemia = test system: CCRF-CEM leukemia
COLO 205 colon = test system: COLO 205 colon
DU-145 prostate = test system: DU-145 prostate
EKVX NSCLC = test system: EKVX NSCLC
HCC-2998 colon = test system: HCC-2998 colon
HCT-116 colon = test system: HCT-116 colon
HCT-15 colon = test system: HCT-15 colon
HL-60(TB) leukemia = test system: HL-60(TB) leukemia
HOP-62 NSCLC = test system: HOP-62 NSCLC
HOP-92 NSCLC = test system: HOP-92 NSCLC
HS 578T breast = test system: HS 578T breast
HT29 colon = test system: HT29 colon
IGROV1 ovarian = test system: IGROV1 ovarian
K-562 leukemia = test system: K-562 leukemia
KM12 colon = test system: KM12 colon
LOX IMVI melanoma = test system: LOX IMVI melanoma
MALME-3M melanoma = test system: MALME-3M melanoma
MCF7 breast = test system: MCF7 breast
MDA-MB-231 breast = test system: MDA-MB-231 breast
MDA-MB-435 = test system: MDA-MB-435
MOLT-4 leukemia = test system: MOLT-4 leukemia
NCI-H226 lung = test system: NCI-H226 lung
NCI-H23 lung = test system: NCI-H23 lung
NCI-H460 lung = test system: NCI-H460 lung
NCI/ADR-RES ovarian = test system: NCI/ADR-RES ovarian
OVCAR-3 ovarian = test system: OVCAR-3 ovarian
OVCAR-4 ovarian = test system: OVCAR-4 ovarian
OVCAR-5 ovarian = test system: OVCAR-5 ovarian
OVCAR-8 ovarian = test system: OVCAR-8 ovarian
PC-3 prostate = test system: PC-3 prostate
RXF 393 renal = test system: RXF 393 renal
SF-268 CNS = test system: SF-268 CNS
SF-295 CNS = test system: SF-295 CNS
SF-539 CNS = test system: SF-539 CNS
SK-MEL-2 melanoma = test system: SK-MEL-2 melanoma
SK-MEL-28 melanoma = test system: SK-MEL-28 melanoma
SK-MEL-5 melanoma = test system: SK-MEL-5 melanoma
SK-OV-3 ovarian = test system: SK-OV-3 ovarian
SN12C renal = test system: SN12C renal
SNB-19 CNS = test system: SNB-19 CNS
SNB-75 CNS = test system: SNB-75 CNS
SR leukemia = test system: SR leukemia
SW-620 colon = test system: SW-620 colon
T-47D breast = test system: T-47D breast
TK-10 renal = test system: TK-10 renal
U251 CNS = test system: U251 CNS
UACC-257 melanoma = test system: UACC-257 melanoma
UACC-62 melanoma = test system: UACC-62 melanoma
UO-31 renal = test system: UO-31 renal

With `CN(C)S(=O)(=O)c1ccc(-c2nc(C(Cl)Cl)nc3cc(-c4ccc(F)cc4)nn23)cc1` the GI50 (786-0 renal) was 9420 nM, the TGI (786-0 renal) was > 100000 nM and the GI50 (A498 renal) was 1760 nM. The TGI (A498 renal) was 8320 nM, the GI50 (A549 NSCLC) was 1880 nM and the TGI (A549 NSCLC) was 5700 nM. It also gave a GI50 (ACHN renal) of 925 nM, a TGI (ACHN renal) of 3610 nM and a GI50 (BT-549 breast) of 2290 nM. It also gave a TGI (BT-549 breast) of 9990 nM, a GI50 (CAKI-1 renal) of 1530 nM and a TGI (CAKI-1 renal) of 4710 nM. The GI50 (CCRF-CEM leukemia) was 1870 nM, the TGI (CCRF-CEM leukemia) was > 100000 nM and the GI50 (COLO 205 colon) was 1620 nM. For the same compound, the TGI (COLO 205 colon) was 4230 nM, the GI50 (DU-145 prostate) was 1590 nM and the TGI (DU-145 prostate) was 6270 nM. It also gave a GI50 (EKVX NSCLC) of 1940 nM, a TGI (EKVX NSCLC) of 5000 nM and a GI50 (HCC-2998 colon) of 1430 nM. It also gave a TGI (HCC-2998 colon) of 2920 nM, a GI50 (HCT-116 colon) of 986 nM and a TGI (HCT-116 colon) of 3220 nM. The GI50 (HCT-15 colon) was 1130 nM, the TGI (HCT-15 colon) was 5080 nM and the GI50 (HL-60(TB) leukemia) was 1300 nM. The TGI (HL-60(TB) leukemia) was > 100000 nM, the GI50 (HOP-62 NSCLC) was 2080 nM and the TGI (HOP-62 NSCLC) was 8370 nM. The GI50 (HOP-92 NSCLC) was 1790 nM, the TGI (HOP-92 NSCLC) was 5750 nM and the GI50 (HS 578T breast) was 2630 nM. It also gave a TGI (HS 578T breast) of 7330 nM, a GI50 (HT29 colon) of 494 nM and a TGI (HT29 colon) of 2150 nM. It also gave a GI50 (IGROV1 ovarian) of 1440 nM, a TGI (IGROV1 ovarian) of 4650 nM and a GI50 (K-562 leukemia) of 929 nM. For the same compound, the TGI (K-562 leukemia) was > 100000 nM, the GI50 (KM12 colon) was 1560 nM and the TGI (KM12 colon) was 4880 nM. For the same compound, the GI50 (LOX IMVI melanoma) was 1150 nM, the TGI (LOX IMVI melanoma) was 6360 nM and the GI50 (MALME-3M melanoma) was 1860 nM. The TGI (MALME-3M melanoma) was 4050 nM, the GI50 (MCF7 breast) was 2460 nM and the TGI (MCF7 breast) was > 100000 nM. For the same compound, the GI50 (MDA-MB-231 breast) was 1750 nM, the TGI (MDA-MB-231 breast) was 6280 nM and the GI50 (MDA-MB-435) was 1320 nM. For the same compound, the TGI (MDA-MB-435) was 3120 nM, the GI50 (MOLT-4 leukemia) was 888 nM and the TGI (MOLT-4 leukemia) was > 100000 nM. The GI50 (NCI-H226 lung) was 2770 nM, the TGI (NCI-H226 lung) was 25600 nM and the GI50 (NCI-H23 lung) was 1450 nM. The TGI (NCI-H23 lung) was 3400 nM, the GI50 (NCI-H460 lung) was 1680 nM and the TGI (NCI-H460 lung) was 4320 nM. For the same compound, the GI50 (NCI/ADR-RES ovarian) was 1010 nM, the TGI (NCI/ADR-RES ovarian) was 4660 nM and the GI50 (OVCAR-3 ovarian) was 1670 nM. It also gave a TGI (OVCAR-3 ovarian) of 4010 nM, a GI50 (OVCAR-4 ovarian) of 2400 nM and a TGI (OVCAR-4 ovarian) of 8140 nM. It also gave a GI50 (OVCAR-5 ovarian) of 2230 nM, a TGI (OVCAR-5 ovarian) of 7890 nM and a GI50 (OVCAR-8 ovarian) of 1740 nM. It also gave a TGI (OVCAR-8 ovarian) of 7580 nM, a GI50 (PC-3 prostate) of 2250 nM and a TGI (PC-3 prostate) of 8560 nM. For the same compound, the GI50 (RXF 393 renal) was 1400 nM, the TGI (RXF 393 renal) was 3870 nM and the GI50 (SF-268 CNS) was 2580 nM. For the same compound, the TGI (SF-268 CNS) was 11100 nM, the GI50 (SF-295 CNS) was 1770 nM and the TGI (SF-295 CNS) was 6660 nM. For the same compound, the GI50 (SF-539 CNS) was 2150 nM, the TGI (SF-539 CNS) was 7550 nM and the GI50 (SK-MEL-2 melanoma) was 2890 nM. For the same compound, the TGI (SK-MEL-2 melanoma) was 9350 nM, the GI50 (SK-MEL-28 melanoma) was 2010 nM and the TGI (SK-MEL-28 melanoma) was 5400 nM. It also gave a GI50 (SK-MEL-5 melanoma) of 1970 nM, a TGI (SK-MEL-5 melanoma) of 4220 nM and a GI50 (SK-OV-3 ovarian) of 2150 nM. The TGI (SK-OV-3 ovarian) was 7790 nM, the GI50 (SN12C renal) was 2180 nM and the TGI (SN12C renal) was 27700 nM. The GI50 (SNB-19 CNS) was 2280 nM, the TGI (SNB-19 CNS) was 10900 nM and the GI50 (SNB-75 CNS) was 5370 nM. The TGI (SNB-75 CNS) was 56400 nM, the GI50 (SR leukemia) was 320 nM and the TGI (SR leukemia) was > 100000 nM. For the same compound, the GI50 (SW-620 colon) was 891 nM, the TGI (SW-620 colon) was 3310 nM and the GI50 (T-47D breast) was 3700 nM. The TGI (T-47D breast) was 56900 nM, the GI50 (TK-10 renal) was 3110 nM and the TGI (TK-10 renal) was 13100 nM. The GI50 (U251 CNS) was 1050 nM, the TGI (U251 CNS) was 2980 nM and the GI50 (UACC-257 melanoma) was 3150 nM. It also gave a TGI (UACC-257 melanoma) of 16600 nM, a GI50 (UACC-62 melanoma) of 1300 nM and a TGI (UACC-62 melanoma) of 2940 nM. The GI50 (UO-31 renal) was 2140 nM and the TGI (UO-31 renal) was 7260 nM.
